According to US20250034520A1, “INCREASING DEVELOPMENTAL POTENTIAL OF HUMAN PREIMPLANTATION EMBRYOS BY REDUCING GENETIC INSTABILITY, ANEUPLOIDIES AND CHROMOSOMAL MOSAICISM” (THE TRUSTEES OF COLUMBIA UNIVERSITY IN THE CITY OF NEW YORK, priority 2022, published 2025):

Key:
Type in all cases: cell-based
[1] = system: mouse embryos; experiment: mouse preimplantation development and embryo quality
Experimental: (§1) Embryos, mouse and human, were cultured in Global Total (Life-Global) for the duration of the experiments and with added compounds as outlined below. Incubation in RNA polymerase inhibitors triptolide (1 mM) or alpha amanitin (20 mg/ml) was performed from the 2PN stage (day1) to day3 of human development. Incubation in aphidicolin was performed at 2 mM. […] Mirin was used at a concentration of 50 mM. Olaparib was used to inhibit PARP at a concentration of 10 mM. All experiments were conducted during incubation at 37° C. with 5% CO2 and 19-20% O2. Chemical stock solutions were prepared in DMSO at concentrations at least 1000× higher than the final concentration.
(§2) Mouse oocytes were activated at 1-6 hours post retrieval using 2 mM ionomycin (Sigma Aldrich) in Global Total medium for 5 minutes at 37° C. followed by culture in 10 mM puromycin and 5 mg/ml cytochalasin B for 3 hours, then cytochalasinB only for 2 hours and 10 minutes to prevent second polar body extrusion.
(§3) Following the experimental exposures, mouse and human embryos were fixed in 2% paraformaldehyde (PFA) and 0.25% Triton X-100 in PBS for 10 minutes at room temperature, serially washed in phosphate-buffered solution (PBS) at room temperature, then stored in PBS at 4° C. until staining and imaging. Embryos were placed in 10-20 ml droplets of primary antibody solution within plastic tissue culture dishes covered with mineral oil for 1 hour at room temperature, serially washed (×2) in PBS containing 0.01% Triton X-100 to prevent embryos sticking to oil, then transferred to 10-20 ml secondary antibody solution and Hoechst (dilution 1:500) for 30 minutes. Embryos were then serially washed (×2) and placed in 5 ml droplets of PBS with 0.5% serum albumin in uncoated glass bottom dishes (Mattek) covered with embryo culture oil for imaging. The following primary antibodies were used across experiments as described above: Oct-4, γH2AX, RPA32, RPA32 S4/S8, RPA32 S33, 53BP1, RAD51, Centromere, and phospho-CHK1. Phospho-specific antibodies were quality controlled through ATR dependence of foci formation in mouse zygotes, and for γH2AX also in human zygotes. […] The appropriate secondary antibodies conjugated with Alexa Fluor 488, Alexa Fluor 555, CF 568, or Alexa Fluor 647 were diluted at 1:500-1:1000. Ethynyl deoxyuridine (EdU) labeling of zygotes and embryos was performed using the labeling kit (Thermo Fisher Scientific) as described by the manufacturer. 10 mM EdU was added to culture medium for 1 h at the indicated time points, and cells were harvested and fixed thereafter. 5-ethynyl uridine (EU) labeling was performed by incubating day3 cleavage stage embryos for 4 hours in Global total containing 0.2 mM EU.
(§4) Embryos were imaged with confocal microscopy using a Zeiss LSM (LSM 710) at a magnification of 63× and the Zeiss Zen software. Images were obtained using 488-, 543- and 633-nm lasers and bright-field microscopy. The number of confocal sections was adjusted to capture the entire nucleus or the entire embryo according to the experimental design as described above. Cell numbers and staining foci numbers were counted manually. Nuclei were identified by the presence of Hoechst33342. Foci were identified if at least 3× greater intensity than nuclear average, spherical in appearance, and overlapping with Hoechst33342 staining. Inner cell masses were identified by the presence of Oct4 within a blastocyst embryo. Active DNA replication was identified by the presence of EdU. DNA damage was identified by the detection of γH2AX and RPA foci within the nucleus. Mechanisms of DNA repair were identified through the detection of RPA S4/S8, RPA S33, Rad51 and 53BP1 foci within the nucleus.

[2] = system: human zygotes; experiment: DNA damage foci immunostaining in human zygotes/parthenotes
Experimental: as §1
Artificial activation of human MII oocytes was performed using two pulses of 2.7 kV/cm at 50 ms using ECFG21 (Nepagene) in fusion buffer consisting of 0.25 M d-sorbitol buffer containing 0.1 mM calcium acetate, 0.5 mM magnesium acetate, 0.5 mM HEPES, and 1 mg ml^−1 fatty-acid-free BSA as previously described (Tachibana et al., 2013). Thereafter, oocytes were incubated for 3.5-4 h in 10 mg/ml puromycin, followed by a wash step and following culture in Global total.
as §3, with “phospho-CHK1.” for “phospho-CHK1. Phospho-specific antibodies were quality controlled through ATR dependence of foci formation in mouse zygotes, and for γH2AX also in human zygotes.”
as §4

[3] = system: mouse zygotes; experiment: DNA damage foci immunostaining in mouse zygotes/embryos
Experimental: as §1, §2, §3, §4

[4] = human, aphidicolin incubation in G2 phase
[5] = mice, aphidicolin incubation in G2 phase

SMILES: C[C@@]1(CO)[C@H](O)CC[C@@]2(C)[C@H]1CC[C@H]1C[C@@H]3C[C@@]12CC[C@]3(O)CO [aphidicolin]
- micronucleation ([1]; 48 h post activation, aphidicolin in G2): increased
- cleaved embryos developed to the blastocyst stage, range ([1]; aphidicolin in G2 phase): 25%-87%
- cleaved embryos developed to the blastocyst stage ([1]; aphidicolin in G2 phase, controls 92%): 72%
- ICM cells marked by Pou5f1 ([1]; day 5, aphidicolin in G2): fewer
- total cell number of blastocysts ([1]; day 5, aphidicolin in G2): reduced
- time to formation of foci for γH2AX and RPA32 ([2]; aphidicolin from 15.5 h post activation): ≤ 6 h
- RPA32-positive foci per haploid nucleus, average ([2]; human, aphidicolin incubation): 1.8 per haploid nucleus
- γH2AX foci positive for RPA32 ([2]; human, aphidicolin incubation): Approximately 10%
- mean γH2AX foci [2, 4]: 21
- γH2AX foci, range [2, 4]: 0-51
- markers of DNA damage (γH2AX, Rpa32, Rpa32 phosphoS33) ([3]; 4-8 cell stage, 48 h post activation): increased
- time to formation of phospho-RPA32, γH2AX and Rad51 foci after fork stalling ([3]; G2 arrested zygotes): 2 to 4 h
- time to resolution of foci after release from the compound ([3]; G2 arrested zygotes): 1 to 2 h
- RPA32-positive foci per haploid nucleus, average ([3]; mice, aphidicolin incubation): 4.5 per haploid nucleus
- γH2AX foci positive for RPA32 ([3]; mice, aphidicolin incubation): Approximately 10%
- mean γH2AX foci [3, 5]: 43
- γH2AX foci, range [3, 5]: 0-228
